Test results: paper PMC3873546, “Two Distinct Determinants of Ligand Specificity in T1R1/T1R3 (the Umami Taste Receptor)” (The Journal of Biological Chemistry, 2013)

Experiments:
hT1R1/mT1R3 = target: T1, hT1R1/mT1R3 (Homo sapiens, UniProt Q7RTX1); assay: mt-clytin-II Ca2+ luminescence, HEK293T; format: cell-based; details: dose-response curve and 50 mM response, pH 7.4, no IMP; weak agonist
T1 construct: gene TAS1R1; mixed-species heteromer, full-length human T1R1 (841 residues) with mouse T1R3, pEAK10, HEK293T with rG15i2 and mt-apoclytin-II; with Taste receptor type 1 member 3 (Mus musculus)
T1 sequence (Q7RTX1 21-841): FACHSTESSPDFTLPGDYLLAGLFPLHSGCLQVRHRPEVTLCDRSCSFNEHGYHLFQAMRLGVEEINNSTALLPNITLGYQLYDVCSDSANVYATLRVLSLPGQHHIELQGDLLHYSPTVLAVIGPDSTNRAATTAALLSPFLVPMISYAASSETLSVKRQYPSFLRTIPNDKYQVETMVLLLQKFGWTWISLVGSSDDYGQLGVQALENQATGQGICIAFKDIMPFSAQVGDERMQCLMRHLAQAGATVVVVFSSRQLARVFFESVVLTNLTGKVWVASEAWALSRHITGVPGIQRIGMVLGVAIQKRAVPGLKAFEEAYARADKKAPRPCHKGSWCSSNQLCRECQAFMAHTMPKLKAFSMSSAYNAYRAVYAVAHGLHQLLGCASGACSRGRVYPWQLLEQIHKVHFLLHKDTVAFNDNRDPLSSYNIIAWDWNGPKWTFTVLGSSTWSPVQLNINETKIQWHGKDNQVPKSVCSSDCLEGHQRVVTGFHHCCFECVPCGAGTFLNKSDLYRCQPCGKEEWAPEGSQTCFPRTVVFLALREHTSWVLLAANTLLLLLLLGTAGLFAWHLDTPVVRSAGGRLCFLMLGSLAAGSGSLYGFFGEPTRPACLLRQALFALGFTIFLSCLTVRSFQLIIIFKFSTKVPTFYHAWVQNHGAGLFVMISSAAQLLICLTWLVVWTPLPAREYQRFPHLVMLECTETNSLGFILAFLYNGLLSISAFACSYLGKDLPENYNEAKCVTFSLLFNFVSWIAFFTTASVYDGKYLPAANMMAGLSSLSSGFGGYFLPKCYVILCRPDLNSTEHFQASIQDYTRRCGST
T1 sequence (Q925D8 21-858 partner): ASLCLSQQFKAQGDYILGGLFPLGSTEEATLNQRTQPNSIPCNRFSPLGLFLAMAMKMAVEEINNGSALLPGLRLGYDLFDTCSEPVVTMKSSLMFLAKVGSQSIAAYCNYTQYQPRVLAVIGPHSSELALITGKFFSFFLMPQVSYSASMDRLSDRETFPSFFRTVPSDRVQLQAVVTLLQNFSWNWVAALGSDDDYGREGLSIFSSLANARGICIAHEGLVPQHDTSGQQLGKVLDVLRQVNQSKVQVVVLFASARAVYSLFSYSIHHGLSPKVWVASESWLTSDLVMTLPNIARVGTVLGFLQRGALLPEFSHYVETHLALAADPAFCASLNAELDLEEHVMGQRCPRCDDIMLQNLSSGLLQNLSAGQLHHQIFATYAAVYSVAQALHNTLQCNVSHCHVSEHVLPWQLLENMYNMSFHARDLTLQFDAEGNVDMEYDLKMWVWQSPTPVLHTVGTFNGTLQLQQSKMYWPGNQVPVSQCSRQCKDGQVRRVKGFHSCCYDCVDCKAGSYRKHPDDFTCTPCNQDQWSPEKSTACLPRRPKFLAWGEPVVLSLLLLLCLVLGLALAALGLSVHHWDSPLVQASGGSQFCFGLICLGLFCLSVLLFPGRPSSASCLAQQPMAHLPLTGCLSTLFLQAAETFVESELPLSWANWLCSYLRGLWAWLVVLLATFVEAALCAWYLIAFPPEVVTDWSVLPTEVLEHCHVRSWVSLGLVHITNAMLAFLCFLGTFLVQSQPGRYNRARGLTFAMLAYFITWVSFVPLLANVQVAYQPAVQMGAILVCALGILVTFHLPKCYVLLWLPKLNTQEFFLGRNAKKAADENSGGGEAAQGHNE

[1] = target: T2, squirrel monkey T1R1 (with mT1R3) (Saimiri boliviensis, UniProt A0A2K6TN71); assay: mt-clytin-II Ca2+ luminescence, HEK293T; format: cell-based; details: dose-response curve only, pH 7.4, no IMP
T2 construct: full-length squirrel monkey T1R1 assembled from genomic exons (liver DNA); HEK293T with mouse T1R3; with Taste receptor type 1 member 3 (Mus musculus)
T2 sequence (A0A2K6TN71 21-841): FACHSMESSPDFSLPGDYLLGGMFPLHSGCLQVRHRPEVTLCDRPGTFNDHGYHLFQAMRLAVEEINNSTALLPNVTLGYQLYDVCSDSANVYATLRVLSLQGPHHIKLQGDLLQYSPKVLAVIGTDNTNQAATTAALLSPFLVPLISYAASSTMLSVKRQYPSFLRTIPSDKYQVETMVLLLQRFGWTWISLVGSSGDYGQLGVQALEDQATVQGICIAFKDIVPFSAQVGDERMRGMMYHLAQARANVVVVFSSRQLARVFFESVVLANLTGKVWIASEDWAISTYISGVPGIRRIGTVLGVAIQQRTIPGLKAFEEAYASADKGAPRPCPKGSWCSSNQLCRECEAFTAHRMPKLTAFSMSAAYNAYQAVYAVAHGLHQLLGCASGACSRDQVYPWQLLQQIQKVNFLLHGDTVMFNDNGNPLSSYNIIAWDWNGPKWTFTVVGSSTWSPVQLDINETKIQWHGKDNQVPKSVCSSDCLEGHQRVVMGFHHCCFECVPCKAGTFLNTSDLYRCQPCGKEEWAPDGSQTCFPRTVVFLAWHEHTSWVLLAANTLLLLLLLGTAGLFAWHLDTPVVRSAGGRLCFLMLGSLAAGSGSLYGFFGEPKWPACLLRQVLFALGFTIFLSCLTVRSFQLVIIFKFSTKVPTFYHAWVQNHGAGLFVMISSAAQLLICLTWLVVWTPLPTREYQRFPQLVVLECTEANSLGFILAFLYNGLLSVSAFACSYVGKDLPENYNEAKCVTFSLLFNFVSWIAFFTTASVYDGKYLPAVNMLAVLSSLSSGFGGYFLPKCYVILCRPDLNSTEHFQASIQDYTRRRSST
T2 sequence (Q925D8 21-858 partner): T1 sequence (Q925D8 21-858 partner)

[2] = tested on: T3, hT1R1(m.371–380) (with mT1R3); details: pH 7.4, rG15i2, no IMP; orthosteric site agonist
T3 construct: gene TAS1R1

baboon T1R1 (with mT1R3) = tested on: T4, baboon T1R1 (with mT1R3); details: pH 7.4, rG15i2, no IMP; orthosteric site agonist
T4 construct: gene TAS1R1

EC50 [2]	EC50 (baboon T1R1 (with mT1R3))	Structure (SMILES)	mt-clytin-II Ca2+ luminescence, HEK293T (hT1R1/mT1R3)	mt-clytin-II Ca2+ luminescence, HEK293T [1]
–	–	C[C@H](N)C(=O)O [L-Ala]	the dose-response curves of human (B), macaque (C), baboon (D)	the squirrel monkey T1R1 demonstrated the greatest L-Ala potency among the four primate T1R1 receptors
110 ± 10 µM	1800 ± 400 µM	N[C@@H](CCC(=O)O)C(=O)O [L-Glu]	–	–
